Source: ChEMBL document CHEMBL5727930, “Indazole containing macrocycles and therapeutic uses thereof” (2020)

Target: Dual specificity tyrosine-phosphorylation-regulated kinase 1A (Homo sapiens, UniProt Q13627)
Assay: Kinase Assay: The DYRK1A kinase assay was run using the Ser/Thr 18 peptide Z-lyte assay kit according to manufacturer's instructions (Life Technologies—a Division of Thermo-Fisher). This is a non-radioactive assay using fluorescence resonance energy transfer (FRET) between coumarin and fluorescein to detect kinase activity which is represented as a ratio of coumarin emission/fluorescein emission.Briefly, recombinant DYRK1A kinase, ATP and Ser/Thr peptide 18 were prepared in 1× Kinase buffer to final concentrations of 0.19 μg/mL, 30 μM, and 4 μM respectively. The mixture was allowed to incubate with the representative compounds for one hour at room temperature. All reactions were performed in duplicate. Unphosphorylated (“0% Control”) and phosphorylated (“100% control”) forms of Ser/Thr 18 served as control reactions. Additionally, an 11-point dose-response curve of Staurosporine (1 uM top) was run to serve as a positive compound control.

| EC50 | SMILES |
| --- | --- |
| 10 nM | O=C1CCc2cccc(c2)-c2cncc3[nH]c(nc23)-c2n[nH]c3ccc(cc23)-c2cncc(c2)N1 |
| 9 nM | O=C1CCc2cccc(c2)-c2cncc(c2)NC(=O)c2n[nH]c3ccc(cc23)-c2cncc(c2)CN1 |
| 3 nM | c1cc2cc(c1)-c1cncc3[nH]c(nc13)-c1n[nH]c3ccc(cc13)-c1cncc(c1)CNC2 |

The next lines start with the compound.

| SMILES | EC50 |
| --- | --- |
| CN1CCCCN(C)c2nccc3[nH]c(nc23)-c2n[nH]c3ccc(cc23)-c2cncc(c2)C1 | 2 nM |
| O=C1COc2cccc(c2)-c2cncc3[nH]c(nc23)-c2n[nH]c3ccc(cc23)-c2cncc(c2)N1 | 5 nM |
